For orientation: IC50 means the concentration needed to halve the response being measured.

The source of these data is patent US20230295157A1, “3-(1H-IMIDAZOL-2-YL)-2,3,8,8A-TETRAHYDROINDOLIZIN-5(1H)-ONE DERIVATIVES USEFUL AS FACTOR XIA INHIBITORS” (JANSSEN PHARMACEUTICA NV, priority 2020, published 2023).

Read-outs that look alike come from different tables or passages of the source. Bounds are passed on as bounds.

One experiment deals with Factor XIa (Homo sapiens (Human), UniProt P03951). Nature of the experiment: Factor XIa inhibition assay (FLINT) utilizing a fluorophore-quencher pair peptide substrate. In kind it is biochemical. To be noted: 30 min preincubation, read-out: FXIa Kin Inh IC50. In short, it runs like this: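 FXIa ([…]) preincubated 30 min with compound (11-point 3-fold dilution, top 100 nM, 2% DMSO), then 15 μM quenched FXI Arg146-based peptide added; Tris pH 7.5, CaCl2, BSA, CHAPS. Fluorescence 485/520 nm read kinetically every 5 min over 30 min at RT; IC50 by 4-parameter fit.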
Factor XIa, sequence (P03951 388-625): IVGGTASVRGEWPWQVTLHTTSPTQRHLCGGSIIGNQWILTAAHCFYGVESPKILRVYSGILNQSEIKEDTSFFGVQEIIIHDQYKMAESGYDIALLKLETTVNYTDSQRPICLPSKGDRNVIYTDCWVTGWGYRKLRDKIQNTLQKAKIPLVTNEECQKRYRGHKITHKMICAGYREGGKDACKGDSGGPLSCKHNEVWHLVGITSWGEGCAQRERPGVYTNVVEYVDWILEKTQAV
Factor XIa, sequence (P03951 19-387 partner): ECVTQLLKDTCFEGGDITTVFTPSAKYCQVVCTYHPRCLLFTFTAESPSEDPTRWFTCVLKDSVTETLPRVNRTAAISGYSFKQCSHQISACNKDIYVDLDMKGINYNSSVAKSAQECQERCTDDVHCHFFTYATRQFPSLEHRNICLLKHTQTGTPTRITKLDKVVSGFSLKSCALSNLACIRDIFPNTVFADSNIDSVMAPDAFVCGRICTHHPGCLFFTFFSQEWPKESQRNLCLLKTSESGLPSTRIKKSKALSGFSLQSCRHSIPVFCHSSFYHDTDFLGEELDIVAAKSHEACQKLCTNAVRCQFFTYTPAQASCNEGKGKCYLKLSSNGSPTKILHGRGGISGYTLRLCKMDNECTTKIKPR

A further experiment has as its target human plasma kallikrein (Homo sapiens (Human), UniProt P03952). In words: Kallikrein inhibition assay (FLINT) utilizing a quenched AMC peptide substrate. To be noted: 30 min preincubation, read-out: Kallikrein Kin Inh IC50. It counts as biochemical. In a few lines:
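Enzyme (2 nM final) pre-incubated 30 min at room temperature with compound (11-point, 3-fold, top 1 μM, 2% DMSO), then 50 μM Z-Gly-Pro-Arg-AMC added in Tris pH 7.5 buffer. Kinetic fluorescence 340/440 nm every 5 min over 30 min; IC50 from 4-parameter logistic fit.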

The mark [1] stands for this setting: kinetic reads over 30 min, 5Fam-KLTRAETV-K5Tamra substrate 15 μM.
Setting [2] is: kinetic reads over 30 min, Z-Gly-Pro-Arg-AMC substrate 50 μM.

human plasma kallikrein, sequence (P03952 391-638): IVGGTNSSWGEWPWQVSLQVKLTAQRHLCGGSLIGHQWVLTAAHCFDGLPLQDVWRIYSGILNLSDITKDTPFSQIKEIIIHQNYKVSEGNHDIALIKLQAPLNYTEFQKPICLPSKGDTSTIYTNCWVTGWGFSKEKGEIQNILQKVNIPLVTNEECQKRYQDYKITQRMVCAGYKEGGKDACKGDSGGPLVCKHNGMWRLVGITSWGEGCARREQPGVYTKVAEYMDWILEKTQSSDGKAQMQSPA
human plasma kallikrein, sequence (P03952 20-390 partner): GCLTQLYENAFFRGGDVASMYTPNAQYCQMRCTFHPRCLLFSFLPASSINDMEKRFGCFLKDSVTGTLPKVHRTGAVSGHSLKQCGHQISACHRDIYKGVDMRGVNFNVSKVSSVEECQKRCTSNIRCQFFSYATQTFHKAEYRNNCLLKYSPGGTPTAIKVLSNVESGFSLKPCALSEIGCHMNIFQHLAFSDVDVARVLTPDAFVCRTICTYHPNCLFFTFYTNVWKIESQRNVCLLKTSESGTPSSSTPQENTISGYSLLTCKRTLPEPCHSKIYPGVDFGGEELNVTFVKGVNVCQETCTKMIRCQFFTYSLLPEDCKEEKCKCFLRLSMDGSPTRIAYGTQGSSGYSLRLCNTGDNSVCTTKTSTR

As for `O=C1C=C(c2c(-n3cnnn3)ccc(Cl)c2F)CC2CC[C@@H](c3nc(-c4nc[nH]n4)c[nH]3)N12` (stereo partly drawn) [Example 331, (3S)-3-(4-(1H-1,2,4-Triazol-3-yl)-1H-imidazol-2-yl)-7-(3-chloro-2-fluoro-6-(1H-tetrazol-1-yl)phenyl)-2,3,8,8a-tetrahydroindolizin-5(1H)-one], the half-inhibitory concentration (IC50) at Factor XIa (setting [1]) turned out to be 0.347 µM; on human plasma kallikrein (μM, kinetic reads), 2.4 µM.

`O=C1C=C(c2c(-n3cnnn3)ccc(Cl)c2F)CC2CC[C@@H](c3nc(-c4cnn[nH]4)c[nH]3)N12` (stereo partly drawn) [Example 332, (3S)-3-(4-(1H-1,2,3-Triazol-5-yl)-1H-imidazol-2-yl)-7-(3-chloro-2-fluoro-6-(1H-tetrazol-1-yl)phenyl)-2,3,8,8a-tetrahydroindolizin-5(1H)-one]: the IC50 amounted to 0.0858 µM on Factor XIa (setting [1]) and 0.542 µM at human plasma kallikrein (setting [2]).

In the case of `O=C1C=C(c2c(-n3cnnn3)ccc(Cl)c2F)CC2CC[C@@H](c3nc(-c4ncc[nH]4)c[nH]3)N12` (stereo partly drawn) [Example 333, (3S)-3-(1H,1′H-[2,4′-Biimidazol]-2′-yl)-7-(3-chloro-2-fluoro-6-(1H-tetrazol-1-yl)phenyl)-2,3,8,8a-tetrahydroindolizin-5(1H)-one], the IC50 at Factor XIa (setting [1]) turned out to be 0.282 µM; on human plasma kallikrein (μM, kinetic reads), 1.1 µM.

In the case of `Cn1ccnc1-c1c[nH]c([C@@H]2CCC3CC(c4c(-n5cnnn5)ccc(Cl)c4F)=CC(=O)N32)n1` (stereo partly drawn) [Example 334, (3S)-7-(3-chloro-2-Fluoro-6-(1H-tetrazol-1-yl)phenyl)-3-(1-methyl-1H,1′H-[2,4′-biimidazol]-2′-yl)-2,3,8,8a-tetrahydroindolizin-5(1H)-one], the half-maximal inhibitory concentration (IC50) was found to be 0.211 µM at Factor XIa (setting [1]) and 7.3 µM at human plasma kallikrein (μM, kinetic reads).

On to `Cn1nncc1-c1c[nH]c([C@@H]2CCC3CC(c4c(-n5cnnn5)ccc(Cl)c4F)=CC(=O)N32)n1` (stereo partly drawn) [Example 339, (3S)-7-(3-Chloro-2-fluoro-6-(1H-tetrazol-1-yl)phenyl)-3-(4-(1-methyl-1H-1,2,3-triazol-5-yl)-1H-imidazol-2-yl)-2,3,8,8a-tetrahydroindolizin-5(1H)-one], for which the half-maximal inhibitory concentration (IC50) on Factor XIa (setting [1]) was 0.134 µM; on human plasma kallikrein (μM, kinetic reads) it was 2.05 µM.

As to `COC(=O)Nc1ccc(-c2cnc([C@@H]3CC[C@H]4CC(c5c(-n6cnnn6)ccc(Cl)c5F)=CC(=O)N43)[nH]2)cc1` [Example 340, Methyl (4-(2-((3S,8aS)-7-(3-chloro-2-fluoro-6-(1H-tetrazol-1-yl)phenyl)-5-oxo-1,2,3,5,8,8a-hexahydroindolizin-3-yl)-1H-imidazol-5-yl)phenyl)carbamate], the IC50 at Factor XIa (setting [1]) was found to be 0.0003 µM; on human plasma kallikrein (setting [2]), 0.0019 µM.

Turning to `COC(=O)Nc1ccc(-c2cnc([C@@H]3CC[C@@H]4CC(c5c(-n6cnnn6)ccc(Cl)c5F)=CC(=O)N43)[nH]2)cc1` [Example 341, Methyl (4-(2-((3S,8aR)-7-(3-chloro-2-fluoro-6-(1H-tetrazol-1-yl)phenyl)-5-oxo-1,2,3,5,8,8a-hexahydroindolizin-3-yl)-1H-imidazol-5-yl)phenyl)carbamate], the IC50 came out at 0.0002 µM on Factor XIa (setting [1]) and 0.0013 µM on human plasma kallikrein (setting [2]).

On to `O=C(O)c1ccc(-c2cnc([C@@H]3CCC4CC(c5c(-n6cnnn6)ccc(Cl)c5F)=CC(=O)N43)[nH]2)cc1F` (stereo partly drawn) [Example 342, 4-[2-[(3S)-7-[3-Chloro-2-fluoro-6-(tetrazol-1-yl)phenyl]-5-oxo-2,3,8,8a-tetrahydro-1H-indolizin-3-yl]-1H-imidazol-4-yl]-2-fluoro-benzoic acid], for which the results for the half-inhibitory concentration (IC50) at Factor XIa (setting [1]) and at human plasma kallikrein (setting [2]) were 0.0226 µM and 0.405 µM, respectively.

As for `CC1C[C@@H](c2ncc(-c3ccc(N)nc3Cl)[nH]2)N2C(=O)C=C(c3c(-n4cnnn4)ccc(Cl)c3F)CC12` (stereo partly drawn) [Example 347, (3S)-3-(5-(6-Amino-2-chloropyridin-3-yl)-1H-imidazol-2-yl)-7-(3-chloro-2-fluoro-6-(1H-tetrazol-1-yl)phenyl)-1-methyl-2,3,8,8a-tetrahydroindolizin-5(1H)-one], the IC50 came out at 0.0006 µM at Factor XIa (setting [1]) and 0.0055 µM at human plasma kallikrein (setting [2]).

`CC1C[C@@H](c2ncc(-c3ccc(N)nc3F)[nH]2)N2C(=O)C=C(c3c(-n4cnnn4)ccc(Cl)c3F)CC12` (stereo partly drawn) [Example 348, (3S)-3-(5-(6-Amino-2-fluoropyridin-3-yl)-1H-imidazol-2-yl)-7-(3-chloro-2-fluoro-6-(1H-tetrazol-1-yl)phenyl)-1-methyl-2,3,8,8a-tetrahydroindolizin-5(1H)-one]: the IC50 at Factor XIa (setting [1]) was determined as 0.0005 µM; at human plasma kallikrein (setting [2]), 0.0064 µM.

Regarding `CC1(C)C[C@@H](c2ncc(-c3ccc(N)nc3Cl)[nH]2)N2C(=O)C=C(c3c(-n4cnnn4)ccc(Cl)c3F)CC21` (stereo partly drawn) [Example 349, (3S)-3-(5-(6-Amino-2-chloropyridin-3-yl)-1H-imidazol-2-yl)-7-(3-chloro-2-fluoro-6-(1H-tetrazol-1-yl)phenyl)-1,1-dimethyl-2,3,8,8a-tetrahydroindolizin-5(1H)-one], the IC50 on Factor XIa (setting [1]) was found to be 0.0006 µM; at human plasma kallikrein (setting [2]), 0.0056 µM.

On to `CC1(C)C[C@@H](c2ncc(-c3ccc(N)nc3F)[nH]2)N2C(=O)C=C(c3c(-n4cnnn4)ccc(Cl)c3F)CC21` (stereo partly drawn) [Example 350, (3S)-3-(5-(6-Amino-2-fluoropyridin-3-yl)-1H-imidazol-2-yl)-7-(3-chloro-2-fluoro-6-(1H-tetrazol-1-yl)phenyl)-1,1-dimethyl-2,3,8,8a-tetrahydroindolizin-5(1H)-one], for which the IC50 at Factor XIa (setting [1]) came out at 0.0013 µM; at human plasma kallikrein (setting [2]), 0.0185 µM.

Turning to `O=C1C=C(c2c(-n3cnnn3)ccc(Cl)c2F)C[C@H]2CC[C@@H](c3ncc(-c4ccnc(C(F)(F)F)c4)[nH]3)N12` [Example 351, (3S,8aR)-7-(3-Chloro-2-fluoro-6-(1H-tetrazol-1-yl)phenyl)-3-(5-(2-(trifluoromethyl)pyridin-4-yl)-1H-imidazol-2-yl)-2,3,8,8a-tetrahydroindolizin-5(1H)-one], the half-maximal inhibitory concentration (IC50) amounted to 0.0027 µM on Factor XIa (setting [1]) and 0.0078 µM at human plasma kallikrein (setting [2]).

Take `Nc1ccc(-c2cnc([C@@H]3CC[C@H]4CC(c5c(-n6cnnn6)ccc(Cl)c5F)=CC(=O)N43)[nH]2)c(Cl)n1` [Example 352, (3S,8aS)-3-(5-(6-Amino-2-chloropyridin-3-yl)-1H-imidazol-2-yl)-7-(3-chloro-2-fluoro-6-(1H-tetrazol-1-yl)phenyl)-2,3,8,8a-tetrahydroindolizin-5(1H)-one]: the 50% inhibitory concentration (IC50) on Factor XIa (setting [1]) stood at 0.0003 µM; on human plasma kallikrein (setting [2]) it was 0.0049 µM.

Regarding `O=C1C=C(c2c(-n3cnnn3)ccc(Cl)c2F)C[C@@H]2CC[C@@H](c3ncc(-c4ccnc(C(F)(F)F)c4)[nH]3)N12` [Example 353, (3S,8aS)-7-(3-Chloro-2-fluoro-6-(1H-tetrazol-1-yl)phenyl)-3-(5-(2-(trifluoromethyl)pyridin-4-yl)-1H-imidazol-2-yl)-2,3,8,8a-tetrahydroindolizin-5(1H)-one], the concentration for half-maximal inhibition (IC50) on Factor XIa (setting [1]) amounted to 0.0129 µM; at human plasma kallikrein (setting [2]), 0.0175 µM.

With `Nc1ccc(-c2cnc([C@@H]3CC[C@@H]4CC(c5c(-n6cnnn6)ccc(Cl)c5F)=CC(=O)N43)[nH]2)c(Cl)n1` [Example 354, (3S,8aR)-3-[5-(6-amino-2-chloro-3-pyridyl)-1H-imidazol-2-yl]-7-[3-chloro-2-fluoro-6-(tetrazol-1-yl)phenyl]-2,3,8,8a-tetrahydro-1H-indolizin-5-one], the half-maximal inhibitory concentration (IC50) on Factor XIa (setting [1]) stood at 0.0002 µM; at human plasma kallikrein (setting [2]), 0.0026 µM.

Regarding `COC(=O)Nc1ccc(-c2cnc([C@@H]3CCC4CC(c5c(-n6cnnn6)ccc(Cl)c5F)=CC(=O)N43)[nH]2)cc1` (stereo partly drawn) [Example 355, Methyl (4-(2-((3S)-7-(3-chloro-2-fluoro-6-(1H-tetrazol-1-yl)phenyl)-5-oxo-1,2,3,5,8,8a-hexahydroindolizin-3-yl)-1H-imidazol-5-yl)phenyl)carbamate], the IC50 was 0.0002 µM on Factor XIa (setting [1]) and 0.0014 µM on human plasma kallikrein (setting [2]).

Consider `Nc1ccc(-c2cnc([C@H]3CC[C@@H]4CC(c5c(-n6cnnn6)ccc(Cl)c5F)=CC(=O)N43)[nH]2)c(F)n1` [Example 356, (3R,8aR)-3-(5-(6-Amino-2-fluoropyridin-3-yl)-1H-imidazol-2-yl)-7-(3-chloro-2-fluoro-6-(1H-tetrazol-1-yl)phenyl)-2,3,8,8a-tetrahydroindolizin-5(1H)-one], for which the half-maximal inhibitory concentration (IC50) was 7.4 µM at Factor XIa (μM, kinetic reads) and over 10 µM on human plasma kallikrein (μM, kinetic reads).

For the molecule `Nc1ccc(-c2cnc([C@H]3CC[C@H]4CC(c5c(-n6cnnn6)ccc(Cl)c5F)=CC(=O)N43)[nH]2)c(F)n1` [Example 357, (3R,8aS)-3-(5-(6-Amino-2-fluoropyridin-3-yl)-1H-imidazol-2-yl)-7-(3-chloro-2-fluoro-6-(1H-tetrazol-1-yl)phenyl)-2,3,8,8a-tetrahydroindolizin-5(1H)-one], the IC50 on Factor XIa (setting [1]) amounted to 0.0641 µM; on human plasma kallikrein (μM, kinetic reads), 2.3 µM.

With `Nc1ccc(-c2cnc([C@@H]3CC[C@@H]4CC(c5c(-n6cnnn6)ccc(Cl)c5F)=CC(=O)N43)[nH]2)c(F)n1` [Example 358, (3S,8aR)-3-[5-(6-amino-2-fluoro-3-pyridyl)-1H-imidazol-2-yl]-7-[3-chloro-2-fluoro-6-(tetrazol-1-yl)phenyl]-2,3,8,8a-tetrahydro-1H-indolizin-5-one], the IC50 on Factor XIa (kinetic reads over 30 min, 5Fam-[…]-K5Tamra substrate 15 μM) was determined as 0.0003 µM; at human plasma kallikrein (setting [2]), 0.0068 µM.

On to `Nc1ccc(-c2cnc([C@@H]3CC[C@H]4CC(c5c(-n6cnnn6)ccc(Cl)c5F)=CC(=O)N43)[nH]2)c(F)n1` [Example 359, (3S,8aS)-3-(5-(6-Amino-2-fluoropyridin-3-yl)-1H-imidazol-2-yl)-7-(3-chloro-2-fluoro-6-(1H-tetrazol-1-yl)phenyl)-2,3,8,8a-tetrahydroindolizin-5(1H)-one], for which the IC50 on Factor XIa (setting [1]) stood at 0.0005 µM; at human plasma kallikrein (setting [2]), 0.011 µM.
